Results reported in article PMC8952208, “Synthesis, Antiplasmodial, and Antileukemia Activity of Dihydroartemisinin–HDAC Inhibitor Hybrids as Multitarget Drugs” (Pharmaceuticals, 2022).

Assays:
[1] = target: T1, human HDAC1 (hHDAC1) (Homo sapiens, UniProt Q13547); assay: In vitro human HDAC1 assay (ZMAL substrate); assay type: biochemical
T1 construct: purchased BPS Bioscience Inc. 50051
Experimental: (§1) OptiPlate-96 black microplates (Perkin Elmer Inc., Waltham, MA, USA) were used with an assay volume of 50 µL. […] After an incubation time of 90 min, 50 µL of 0.4 mg/mL trypsin in trypsin buffer (50 mM Tris-HCl, pH 8.0, and 100 mM NaCl) was added, followed by further incubation at 37 °C for 30 min.

[2] = target: T2, human HDAC6 (hHDAC6) (Homo sapiens, UniProt Q9UBN7); assay: In vitro human HDAC6 assay (ZMAL substrate); assay type: biochemical; conditions: for SI 1/6: Selectivity Index = (hHDAC1 IC50)/(hHDAC6 IC50)
T2 construct: purchased BPS Bioscience Inc. 50006
T2 sequence (Q9UBN7 1-1215): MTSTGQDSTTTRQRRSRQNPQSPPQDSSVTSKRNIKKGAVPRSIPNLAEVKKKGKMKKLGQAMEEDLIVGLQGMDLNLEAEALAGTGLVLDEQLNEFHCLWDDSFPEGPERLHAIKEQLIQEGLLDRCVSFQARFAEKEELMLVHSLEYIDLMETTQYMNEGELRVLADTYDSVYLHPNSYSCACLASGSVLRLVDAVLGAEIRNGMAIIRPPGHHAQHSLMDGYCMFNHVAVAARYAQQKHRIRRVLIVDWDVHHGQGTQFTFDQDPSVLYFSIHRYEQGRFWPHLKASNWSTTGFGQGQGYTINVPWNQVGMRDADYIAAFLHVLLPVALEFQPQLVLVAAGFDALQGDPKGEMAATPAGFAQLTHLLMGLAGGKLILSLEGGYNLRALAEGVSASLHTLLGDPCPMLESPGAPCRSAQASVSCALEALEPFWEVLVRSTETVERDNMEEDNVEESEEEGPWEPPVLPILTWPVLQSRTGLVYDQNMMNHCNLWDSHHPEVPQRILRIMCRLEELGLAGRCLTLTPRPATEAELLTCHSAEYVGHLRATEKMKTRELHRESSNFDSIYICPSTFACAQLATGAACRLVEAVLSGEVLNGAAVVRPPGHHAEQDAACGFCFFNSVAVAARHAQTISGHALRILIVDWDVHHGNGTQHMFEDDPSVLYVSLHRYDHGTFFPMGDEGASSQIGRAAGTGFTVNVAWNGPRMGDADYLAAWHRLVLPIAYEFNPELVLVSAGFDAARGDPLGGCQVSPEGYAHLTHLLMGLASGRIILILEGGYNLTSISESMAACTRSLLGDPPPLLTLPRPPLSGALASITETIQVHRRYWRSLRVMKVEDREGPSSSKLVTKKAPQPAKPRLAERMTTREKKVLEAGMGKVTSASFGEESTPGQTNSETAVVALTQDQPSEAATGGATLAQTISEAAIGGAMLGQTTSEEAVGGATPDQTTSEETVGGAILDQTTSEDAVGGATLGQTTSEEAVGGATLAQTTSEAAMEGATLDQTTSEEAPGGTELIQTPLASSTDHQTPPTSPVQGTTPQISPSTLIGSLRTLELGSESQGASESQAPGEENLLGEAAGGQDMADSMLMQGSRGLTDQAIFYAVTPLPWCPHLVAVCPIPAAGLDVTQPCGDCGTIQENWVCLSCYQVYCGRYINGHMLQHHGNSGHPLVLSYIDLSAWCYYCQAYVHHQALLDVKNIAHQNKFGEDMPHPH
Experimental: as §1

[3] = tested on: P. falciparum 3D7; assay: microbe, parasite or virus in culture; assay type: cell-based; conditions: Plasmodium falciparum, 3D7, 72 h; asexual blood stages, three days incubation; n ≥ 2 in duplicate, mean ± SD; read-out: Pf3D7 IC50
Experimental: (§2) [38, 39] […] After three days of incubation at 37 °C, 5% CO2 and 5% O2 plates were frozen until analyzed by HRP2-ELISA. All compounds were evaluated in duplicate in at least two independent experiments. The IC50 was determined by nonlinear regression analysis of log concentration-response curves using the drc-package v3.0.1 [40] of R v4.0.5..

[4] = tested on: P. falciparum Dd2; assay: microbe, parasite or virus in culture; assay type: cell-based; conditions: Plasmodium falciparum, DD2, 72 h, read-out: PfDd2 IC50
Experimental: as §2

[5] = tested on: A2780 cells; assay: MTT cell viability assay; assay type: cell-based; conditions: Homo sapiens, 72 h, n ≥ 3 in triplicate, mean ± SD
Experimental: Reagents were obtained from PAN Biotech, Aidenbach Germany. The cell line was cultured at 37 °C under humidified air with 5% CO2 to a confluence of 80–90% before being used for further assays.
Intrinsic cytotoxicity of test compounds was determined by an MTT assay as previously described. A2780 cells were seeded in 96-well plates (Starlab GmbH, Hamburg, Germany) at a density of 20,000 cells/well and allowed to attach for 12 h. Cells were then treated with increasing concentrations of the test compounds. After 72 h, MTT (3-(4,5-dimethylthiazol-2-yl)-2,5-diphenyltetrazolium bromide) (BioChemica, Applichem GmbH, Darmstadt, Germany) solution (5 mg/mL in phosphate-buffered saline) was added to determine cell survival. The formazan dye was dissolved in DMSO (Sigma-Aldrich, Darmstadt, Germany) after 1 h. Absorbance was measured at 570 nm and 690 nm in a Multiskan microplate photometer (Thermo Fisher Scientific, Waltham, MA, USA). Concentration-response curves were generated using the four-parameter logistic equation (GraphPad Prism 9.0, San Diego, USA), and mean IC50 values were calculated in triplicates based on at least three different experiments.

[6] = tested on: K562 cells; assay: CellTiter-Glo cell viability assay, K562; assay type: cell-based, human; conditions: Homo sapiens, K562; CML; 72 h, CellTiter-Glo, n = 3
Experimental: (§3) Healthy individually-derived fibroblasts were cultured in DMEM supplemented with 10% FCS. Regular cell line authentication was performed short tandem repeat (STR) analysis (DNA fingerprinting), followed by comparison with the original DSMZ cell line database.
(§4) Cell viability assay was performed with leukemic cell lines after 72 h incubation with the respective inhibitors using ATP-based CellTiter-Glo luminescent assay (Promega, Madison, WI, USA).

[7] = tested on: HL60 cells; assay: CellTiter-Glo cell viability assay, HL60; assay type: cell-based, human; conditions: Homo sapiens, HL-60; AML; 72 h, CellTiter-Glo, n = 3
Experimental: as §3, §4

[8] = tested on: NALM6 cells; assay: CellTiter-Glo cell viability assay, NALM6; assay type: cell-based, human; conditions: Homo sapiens, NALM-6; B-ALL; 72 h, CellTiter-Glo, n = 3
Experimental: as §3, §4

[9] = tested on: HPBALL cells; assay: CellTiter-Glo cell viability assay, HPBALL; assay type: cell-based, human; conditions: Homo sapiens, HPBALL; T-ALL; 72 h, CellTiter-Glo, n = 3
Experimental: as §3, §4

[10] = tested on: MOLM13 cells; assay: CellTiter-Glo cell viability assay, MOLM13; assay type: cell-based, human; conditions: Homo sapiens, MOLM-13; AML; 72 h, CellTiter-Glo, n = 3
Experimental: as §3, §4

[11] = tested on: P. falciparum Dd2 R539T; assay: In vitro P. falciparum growth inhibition assay (HRP2), Dd2 R539T; assay type: cell-based; conditions: Plasmodium falciparum, DD2, 72 h, read-out: PfDd2 R539T IC50
Experimental: Antiplasmodial activity of DHA–HDACi hybrids was evaluated against the asexual stages of the laboratory P. falciparum strains (3D7, chloroquine-sensitive strain, and Dd2, chloroquine-resistant strain, and Dd2 R539T (MRA-1255), provided by BEI Resources carrying a kelch13-mutation that conveys partial artemisinin resistance), using the histidine-rich protein 2 (HRP2) assay, as previously described. In brief: 96-well plates were precoated with the tested compounds in a three-fold serial dilution before ring-stage parasites were added in complete culture medium at a hematocrit of 1.5% and a parasitaemia of 0.05%. After three days of incubation at 37 °C, 5% CO2 and 5% O2 plates were frozen until analyzed by HRP2-ELISA. All compounds were evaluated in duplicate in at least two independent experiments. The IC50 was determined by nonlinear regression analysis of log concentration-response curves using the drc-package v3.0.1 [40] of R v4.0.5..

[12] = tested on: five leukemia cell lines (K562, HL60, NALM6, HPBALL, MOLM13); assay: CellTiter-Glo cell viability assay, panel of five leukemia cell lines; assay type: cell-based, human; conditions: number of the five leukemia cell lines in which DHA is exceeded
Experimental: as §3, §4

T1 sequence (Q13547 whole entry): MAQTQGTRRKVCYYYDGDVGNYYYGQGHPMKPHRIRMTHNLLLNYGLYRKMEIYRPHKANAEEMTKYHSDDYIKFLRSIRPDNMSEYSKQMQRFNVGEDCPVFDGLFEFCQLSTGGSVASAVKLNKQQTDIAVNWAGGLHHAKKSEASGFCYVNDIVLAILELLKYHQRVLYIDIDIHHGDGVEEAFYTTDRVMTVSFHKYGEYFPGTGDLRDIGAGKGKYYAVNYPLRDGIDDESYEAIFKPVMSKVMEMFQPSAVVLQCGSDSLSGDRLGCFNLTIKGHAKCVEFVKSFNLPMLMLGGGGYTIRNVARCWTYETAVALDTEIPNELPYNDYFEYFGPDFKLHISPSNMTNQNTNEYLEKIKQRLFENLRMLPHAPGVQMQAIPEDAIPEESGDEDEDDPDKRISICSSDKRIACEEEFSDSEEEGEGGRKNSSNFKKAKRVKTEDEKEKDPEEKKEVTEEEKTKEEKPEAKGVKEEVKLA

| SMILES | IC50 [1] | IC50 [2] | SI 1/6 [2] | IC50 [3] | IC50 [4] | IC50 [5] | IC50 [6] | IC50 [7] | IC50 [8] | IC50 [9] | IC50 [10] | IC50 [11] | inhibition at 3.33 µM [1] | antiproliferative activity compared to DHA [12] |
| --- | --- | --- | --- | --- | --- | --- | --- | --- | --- | --- | --- | --- | --- | --- |
| C[C@H]1[C@@H](Sc2ccc(CC(=O)NO)cc2)O[C@@H]2O[C@@]3(C)CC[C@H]4[C@H](C)CC[C@@H]1[C@@]24OO3 [(α)-7e, N-Hydroxy-2-(4-(((3R,5aS,6R,8aS,9R,10R,12S,12aR)-3,6,9-trimethyldecahydro-12H-3,12-epoxy[1,2]dioxepino[4,3-i]isochromen-10-yl)thio)phenyl)acetamide] | > 10000 nM | 1100 ± 75 nM | >9 | 3.1 ± 0.7 nM | 1.8 ± 0.8 nM | 1830 ± 100 nM | 770 ± 240 nM | 1620 ± 120 nM | 440 ± 10 nM | 3340 ± 370 nM | 450 ± 180 nM |  |  |  |
| C[C@H]1[C@H](Sc2ccc(CC(=O)NO)cc2)O[C@@H]2O[C@@]3(C)CC[C@H]4[C@H](C)CC[C@@H]1[C@@]24OO3 [(β)-7e, N-Hydroxy-2-(4-(((3R,5aS,6R,8aS,9R,10S,12S,12aR)-3,6,9-trimethyldecahydro-12H-3,12-epoxy[1,2]dioxepino[4,3-i]isochromen-10-yl)thio)phenyl)acetamide] | > 10000 nM | 1000 ± 130 nM | >10 | 2.6 ± 1.3 nM | 1.6 ± 0.8 nM | 2090 ± 420 nM | 1710 ± 330 nM |  | 770 ± 80 nM | 20600 ± 6130 nM | 640 ± 170 nM |  |  |  |
| C[C@@H]1CC[C@H]2[C@@H](C)C(OCc3ccc(/C=C/C(=O)O)cc3)O[C@@H]3O[C@@]4(C)CC[C@@H]1[C@]32OO4 (stereo partly drawn) [Compound 6a, (E)-3-(4-((((3R,5aS,6R,8aS,9R,12R,12aR)-3,6,9-Trimethyldecahydro-12H-3,12-epoxy[1,2]dioxepino[4,3-i]isochromen-10-yl)oxy)methyl)phenyl)acrylic acid] | > 10000 nM | > 10000 nM |  | 5.9 ± 0.7 nM | 5.8 ± 2.8 nM | 3380 ± 210 nM | 4010 ± 600 nM | 2530 ± 560 nM | 1310 ± 110 nM | 23900 ± 4690 nM | 680 ± 90 nM |  |  |  |
| C[C@@H]1CC[C@H]2[C@@H](C)C(SCCCCCC(=O)NO)O[C@@H]3O[C@@]4(C)CC[C@@H]1[C@]32OO4 (stereo partly drawn) [Compound 7b, N-Hydroxy-6-(((3R,5aS,6R,8aS,9R,12S,12aR)-3,6,9-trimethyldecahydro-12H-3,12-epoxy[1,2]dioxepino[4,3-i]isochromen-10-yl)thio)hexanamide] | 430 ± 46 nM | 45 ± 5 nM | 10 | 5.2 ± 0.4 nM | 6.6 ± 2.5 nM | 1520 ± 50 nM | 910 ± 320 nM | 2070 ± 30 nM | 260 ± 10 nM | 2410 ± 380 nM | 580 ± 190 nM | 3 ± 1.2 nM |  |  |
| C[C@H]1[C@H](OCc2ccc(C(=O)NO)cc2)O[C@@H]2O[C@@]3(C)CC[C@H]4[C@H](C)CC[C@@H]1[C@@]24OO3 [Compound 7d, N-Hydroxy-4-((((3R,5aS,6R,8aS,9R,10R,12R,12aR)-3,6,9-trimethyldecahydro-12H-3,12-epoxy[1,2]dioxepino[4,3-i]isochromen-10-yl)oxy)methyl)benzamide] | 2490 ± 240 nM | 14 ± 2 nM | 178 | 2.8 ± 1.3 nM | 2 ± 0.7 nM | 1310 ± 320 nM | 1000 ± 360 nM | 2410 ± 450 nM | 360 ± 50 nM | 6810 ± 540 nM | 390 ± 50 nM | 1.2 ± 0.8 nM |  |  |
| C[C@@H]1CC[C@H]2[C@@H](C)C(OCc3ccc(/C=C/C(=O)Nc4ccccc4N)cc3)O[C@@H]3O[C@@]4(C)CC[C@@H]1[C@]32OO4 (stereo partly drawn) [Compound 8, (E)-N-(2-Aminophenyl)-3-(4-((((3R,5aS,6R,8aS,9R,12R,12aR)-3,6,9-trimethyldecahydro-12H-3,12-epoxy[1,2]dioxepino[4,3-i]isochromen-10-yl)oxy)methyl)phenyl)acrylamide] | > 3330 nM | > 10000 nM |  | 2.5 ± 1.4 nM | 2.5 ± 0.14 nM | 1470 ± 980 nM | 690 ± 110 nM | 1640 ± 170 nM | 340 ± 30 nM | 1690 ± 190 nM | 490 ± 80 nM |  | 41% | exceeded the antiproliferative potential of DHA in four out of five cell lines |
